Assay [1] concerns CoCSC-derived culture (TGFBR2-mutant tumour organoids of a Stage IV CRC patient). The assay is described as follows: in vitro growth of CoCSC-derived tumour organoid culture. The class given is cell-based, human. Conditions: both TGFBR2 alleles inactivated, data not shown. An excerpt:
The purification of Colon Cancer CoCSCs from CRC biopsies is described elsewhere (Merlos-Suarez et al., 2011, Cell Stem Cell 8, 511-524). We isolated CoCSCs from the primary tumour of a Stage IV CRC patient and cultured them as epithelial tumour organoids as described in (Jung et al., 2011; Nat Med 17, 1225-1227; Sato et al., 2011; Gastroenterology 141, 1762-1772). […] When injected in immunodeficient mice, they generated tumours with abundant p-SMAD2+ stromal cells, implying that this primary CoCSCs elicited a TGF-beta response in the tumour microenvironment (data not shown).

For assay [2], the system named is colon cancer stem cells derived from a stage IV patient. The assay is described as follows: liver metastasis after intrasplenic inoculation of CoCSCs, bioluminescence. Type of assay: in vivo, NSG mice. An excerpt: (§1) A. Kaplan Meier curves show tumour free survival over time for mice injected subcutaneously with colon cancer stem cells derived from a stage IV patient, treated or not with a TGF beta inhibitor (LY2157299). Mice received LY2157299 or vehicle from three days prior to inoculation until sacrifice (n=12) B. Bioluminescence over time after intrasplenic inoculation of 5×10^5 colon cancer stem cells derived from a stage IV patient in NSG mice treated as in A. Intensities were normalized to day 0 and arbitrarily set to 100. Values are mean±SEM (*: p<0.05).
All experiments with mouse models were approved by the animal care and use committee of the Barcelona Science Park (CEEA-PCB) and the Catalan Government. Cells were injected subcutaneously in 5 to 6 weeks old Swiss nude or NSG mice, (Jackson Labs), which were followed for the periods described. Tumour appearance was assessed by palpation. […]
Mice were anaesthetized, injected retro-orbitally with D-luciferin (Promega) and imaged for luciferase activity as previously described (Minn et al., 2005; J Clin Invest 115, 44-55). Luciferase activity measured immediately after cell injection was used to exclude any mice that were not successfully xenografted and to normalize bioluminescence. […]

Assay [3] relates to TGF-beta signalling (p-SMAD2). Kind of assay: TGF-beta signalling and target gene mRNA in pre-established xenografts. Conditions: tenfold higher dosed treatment for 3 days. Type of assay: in vivo, mice. An excerpt: The TGF-beta receptor I kinase antagonist, LY2157299, developed by Eli Lilly (Beight, 2004, Eli Lilly and Co. PCT Int. Appl. In PCT Int. Appl. WO2004048382A1; Bueno et al., 2008; Eur J Cancer 44, 142-150) was synthesized following the procedure described (Mundla, 2007; Eli Lilly and Company. PCT Int. Appl. WO2007018818A1. In, (USA)). TGF-beta receptor type I inhibitor LY2157299 was suspended in a formulation (vehicle) composed of 1% sodium carboxy methylcellulose (NaCMC), 0.4% sodium lauryl sulfate (SLS), 0.05% anti-foam and 0.085% polyvinylpyrrolidone (PVP) in a concentration of 6.67 mg mL^−1. Mice were dosed twice a day with 2 mg in 300 μL (2 mg) per os. starting 3 days before CRC cell lines inoculation. A tenfold higher dosed treatment for 3 days was used to show TGF-beta signalling (p-SMAD2) and target gene mRNA downregulation in pre-established xenografts.

Assay [4] has as its system colon cancer stem cells derived from a stage IV patient. Kind of assay: subcutaneous tumour formation by primary CoCSC-derived cells in mice. Conditions: 2 mg twice a day per os, from three days prior to inoculation until sacrifice; FIG. 12A. The class given is in vivo.
From the text: as §1
All experiments with mouse models were approved by the animal care and use committee of the Barcelona Science Park (CEEA-PCB) and the Catalan Government. Cells were injected subcutaneously in 5 to 6 weeks old Swiss nude or NSG mice, (Jackson Labs), which were followed for the periods described. Tumour appearance was assessed by palpation. Five to six weeks old Balb/c nude or NSG mice (Jackson Labs) were used to perform metastasis experiments by intra-splenic injection (Warren et al., 1995, J. Clin. Invest. 95, 1789-1797) […]

`Cc1cccc(-c2nn3c(c2-c2ccnc4ccc(C(N)=O)cc24)CCC3)n1` [LY2157299, 2-(6-methyl-pyridin-2-yl)-3-[6-amido-quinolin-4-yl)-5,6-dihydro-4H-pyrrolo[1,2-b]pyrazole]: the “in vitro growth rates, morphology or organoid forming activity” value in assay [1] is on record as “did not modify”. Also, in assay [2] (kinetics of metastatic colonization, FIG. 12B inset), the “number of cells that engrafted the liver immediately after inoculation” value was “reduced the number of cells that engrafted the liver”. In addition, the “formation of liver metastasis by CoCSCs inoculated via the spleen” value in assay [2] (same regime, 5×10^5 cells intrasplenic, NSG mice, FIG. 12B) is recorded as “reduced formation of liver metastasis”. For the same compound, the “TGF-beta signalling (p-SMAD2) and target gene mRNA” value in assay [3] is recorded as “downregulation”. Besides, the “formation of subcutaneous tumours (tumour free survival)” value in assay [4] is “conferred resistance to the formation of subcutaneous tumours”.

Consider “active TGF-beta: active TGF-beta added to the CoCSC-derived culture”, for which the “in vitro growth rates, morphology or organoid forming activity” value in assay [1] is recorded as “did not modify”.

For the origin of these results see patent US20150289795A1, “METHODS AND KITS FOR THE PROGNOSIS OF COLORECTAL CANCER” (INSTITUCIÓ CATALANA DE RECERCA I ESTUDIS AVANÇATS, priority 2012, published 2015).
